# Test results reported in ChEMBL document CHEMBL5143703, “Discovery of novel chloropyramine-cinnamic acid hybrids as potential FAK inhibitors for intervention of metastatic triple-negative breast cancer” (Bioorg Med Chem, 2022).
# Active and inactive are the calls of the source. The calls are words filed in the database; no cut-off is given here.
# Columns and labels:
# [1] = system: MDA-MB-231; test: Antiproliferative activity against human MDA-MB-231 cells assessed as inhibition of cell proliferation at 10 uM incubated for 72 hrs by MTT assay relative to control; type: functional
# [2] = system: MDA-MB-231; test: Antiproliferative activity against human MDA-MB-231 cells assessed as inhibition of cell proliferation incubated for 72 hrs by MTT assay; type: functional, cell-based; settings: MDA-MB-231, 72 h
# [3] = system: MDA-MB-157; test: Antiproliferative activity against human MDA-MB-157 cells assessed as inhibition of cell proliferation incubated for 72 hrs by MTT assay; type: functional, cell-based; settings: MDA-MB-157, 72 h
# [4] = system: MDA-MB-453; test: Antiproliferative activity against human MDA-MB-453 cells assessed as inhibition of cell proliferation incubated for 72 hrs by MTT assay; type: functional, cell-based; settings: MDA-MB-453, 72 h
# [5] = Cytotoxicity against human MCF-10A cells assessed as inhibition of cell proliferation incubated for 72 hrs by MTT assay; type: toxicity, cell-based
# [6] = system: MDA-MB-231; test: Potency index, ratio of chloropyramine IC50 to test compound IC50 for antiproliferative activity against human MDA-MB-231 cells assessed as inhibition of cell proliferation incubated for 72 hrs by MTT assay; type: functional
# [7] = Potency index, ratio of test compound IC50 to chloropyramine IC50 for cytotoxicity against human MCF-10A cells assessed as inhibition of cell proliferation incubated for 72 hrs by MTT assay; type: toxicity, cell-based; settings: read-out: Ratio IC50
# [8] = system: MDA-MB-231; test: Inhibition of cell invasion in human MDA-MB-231 cells assessed as reduction in invasive cells incubated for 24 hrs by crystal violet staining based transwell assay; type: functional; settings: dose 5-20 µM, DDE = dose-dependent effect
# [9] = system: MDA-MB-231; test: Inhibition of cell migration in human MDA-MB-231 cells incubated for 24 hrs by scratch wound healing assay; type: functional, cell-based; settings: dose 5-20 µM, DDE = dose-dependent effect
# [10] = target: Focal adhesion kinase 1 (Homo sapiens) (UniProt Q05397); test: Inhibition of FAK autophosphorylation at […] in human MDA-MB-231 cells incubated for 72 hrs by Western blot analysis; type: cell-based; settings: dose 5-20 µM, DDE = dose-dependent effect
# Focal adhesion kinase 1 (Homo sapiens), sequence (Q05397 2-1052 limits assumed): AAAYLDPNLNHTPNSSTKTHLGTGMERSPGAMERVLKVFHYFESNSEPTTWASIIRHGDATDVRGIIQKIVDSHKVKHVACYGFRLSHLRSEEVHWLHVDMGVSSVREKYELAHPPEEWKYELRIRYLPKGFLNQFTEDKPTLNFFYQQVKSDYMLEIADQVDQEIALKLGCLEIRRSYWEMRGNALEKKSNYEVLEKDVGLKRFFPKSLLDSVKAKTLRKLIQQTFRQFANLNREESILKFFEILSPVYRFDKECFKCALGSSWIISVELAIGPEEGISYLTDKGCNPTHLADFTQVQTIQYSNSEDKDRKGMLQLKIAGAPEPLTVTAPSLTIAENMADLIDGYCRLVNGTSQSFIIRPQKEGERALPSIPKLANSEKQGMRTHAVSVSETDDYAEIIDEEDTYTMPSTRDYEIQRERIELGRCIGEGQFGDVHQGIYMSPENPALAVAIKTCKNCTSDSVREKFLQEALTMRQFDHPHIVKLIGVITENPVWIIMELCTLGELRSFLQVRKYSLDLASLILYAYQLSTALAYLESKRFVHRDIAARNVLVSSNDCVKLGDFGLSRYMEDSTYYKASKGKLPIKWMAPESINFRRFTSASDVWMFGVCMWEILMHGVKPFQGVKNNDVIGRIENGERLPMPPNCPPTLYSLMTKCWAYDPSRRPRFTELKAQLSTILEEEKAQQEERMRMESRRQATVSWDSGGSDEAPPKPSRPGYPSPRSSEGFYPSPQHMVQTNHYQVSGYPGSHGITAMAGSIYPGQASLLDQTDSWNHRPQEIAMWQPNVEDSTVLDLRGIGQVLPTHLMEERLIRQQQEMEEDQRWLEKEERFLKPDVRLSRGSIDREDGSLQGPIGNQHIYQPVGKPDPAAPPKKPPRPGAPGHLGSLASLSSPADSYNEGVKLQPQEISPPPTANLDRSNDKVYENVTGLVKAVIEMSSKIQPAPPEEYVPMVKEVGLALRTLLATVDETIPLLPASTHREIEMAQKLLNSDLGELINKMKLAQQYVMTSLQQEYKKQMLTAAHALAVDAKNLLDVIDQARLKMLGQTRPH
# [11] = system: MDA-MB-231; test: Inhibition of focal adhesion formation in human MDA-MB-231 cells assessed as reduction in focal adhesion at 20 uM incubated for 72 hrs by vinculin antibody based immunofluorescence microscopic analysis; type: functional, cell-based
# [12] = system: MDA-MB-231; test: Inhibition of stress fibers formation in human MDA-MB-231 cells assessed as reduction in stress fibers at 20 uM incubated for 72 hrs by FITC-Phalloidin staining based immunofluorescence microscopic analysis; type: functional, cell-based
# [13] = system: MDA-MB-231; test: Induction of apoptosis in human MDA-MB-231 cells assessed as viable cells at 5 uM incubated for 72 hrs by Annexin V-FITC and PI staining based flow cytometry analysis (reference value: 92.16 %); type: functional; settings: read-out: Activity
# [14] = system: MDA-MB-231; test: Induction of apoptosis in human MDA-MB-231 cells assessed as early apoptotic cells at 5 uM incubated for 72 hrs by Annexin V-FITC and PI staining based flow cytometry analysis (reference value: 1.70 %); type: functional
# [15] = system: MDA-MB-231; test: Induction of apoptosis in human MDA-MB-231 cells assessed as late apoptotic cells at 5 uM incubated for 72 hrs by Annexin V-FITC and PI staining based flow cytometry analysis (reference value: 4.98 %); type: functional
# [16] = system: MDA-MB-231; test: Induction of apoptosis in human MDA-MB-231 cells assessed as dead cells at 5 uM incubated for 72 hrs by Annexin V-FITC and PI staining based flow cytometry analysis (reference value: 1.16 %); type: functional
# [17] = system: MDA-MB-231; test: Induction of apoptosis in human MDA-MB-231 cells assessed as viable cells at 10 uM incubated for 72 hrs by Annexin V-FITC and PI staining based flow cytometry analysis (reference value: 92.16 %); type: functional; settings: read-out: Activity
# [18] = system: MDA-MB-231; test: Induction of apoptosis in human MDA-MB-231 cells assessed as early apoptotic cells at 10 uM incubated for 72 hrs by Annexin V-FITC and PI staining based flow cytometry analysis (reference value: 1.70 %); type: functional
# [19] = system: MDA-MB-231; test: Induction of apoptosis in human MDA-MB-231 cells assessed as late apoptotic cells at 10 uM incubated for 72 hrs by Annexin V-FITC and PI staining based flow cytometry analysis (reference value: 4.98 %); type: functional
# [20] = system: MDA-MB-231; test: Induction of apoptosis in human MDA-MB-231 cells assessed as dead cells at 10 uM incubated for 72 hrs by Annexin V-FITC and PI staining based flow cytometry analysis (reference value: 1.16 %); type: functional
# [21] = system: MDA-MB-231; test: Induction of apoptosis in human MDA-MB-231 cells assessed as viable cells at 20 uM incubated for 72 hrs by Annexin V-FITC and PI staining based flow cytometry analysis (reference value: 92.16 %); type: functional; settings: read-out: Activity
# [22] = system: MDA-MB-231; test: Induction of apoptosis in human MDA-MB-231 cells assessed as early apoptotic cells at 20 uM incubated for 72 hrs by Annexin V-FITC and PI staining based flow cytometry analysis (reference value: 1.70 %); type: functional
# [23] = system: MDA-MB-231; test: Induction of apoptosis in human MDA-MB-231 cells assessed as late apoptotic cells at 20 uM incubated for 72 hrs by Annexin V-FITC and PI staining based flow cytometry analysis (reference value: 4.98 %); type: functional
# [24] = system: MDA-MB-231; test: Induction of apoptosis in human MDA-MB-231 cells assessed as dead cells at 20 uM incubated for 72 hrs by Annexin V-FITC and PI staining based flow cytometry analysis (reference value: 1.16 %); type: functional
Structure (SMILES),IC50 [2] [µM],IC50 [3] [µM],IC50 [4] [µM],inhibition at 10 µM [1] [%],IC50 at 72 h [5] [µM],also measured
CN(C)CCN(C(=O)/C=C/c1c[nH]c2ccccc12)c1ccccn1,8.37,12.1,9.07,> 50,40.6,Ratio IC50 [6]: 6; selectivity ratio at 72 h [7]: 5; inhibition [8]: Dde; inhibition [9]: Dde; inhibition [10]: Dde; inhibition [11]: Active; inhibition [12]: Active; viability at 5 µM [13]: 83%; Activity [14]: 3.05%; Activity [15]: 10.05%; Activity [16]: 3.88%; viability at 10 µM [17]: 63.8%; Activity [18]: 2%; Activity [19]: 30.24%; Activity [20]: 3.98%; viability at 20 µM [21]: 52.6%; Activity [22]: 2.01%; Activity [23]: 39.58%; Activity [24]: 5.83%
COc1cc(/C=C/C(=O)N(CCN(C)C)c2ccccn2)ccc1O,13.5,14.2,15.9,> 50,> 60,

# More lines, in order of falling IC50 [2], values ahead:
IC50 [2] [µM],IC50 [3] [µM],IC50 [4] [µM],Structure (SMILES),inhibition at 10 µM [1] [%],IC50 at 72 h [5] [µM],also measured
49.7,43.1,> 60,CN(C)CCN(Cc1ccc(Cl)cc1)c1ccccn1 [CHLOROPYRAMINE],,> 60,
14,9.68,21.2,Cc1nc(C)c(/C=C/C(=O)N(CCN(C)C)c2ccccn2)nc1C,> 50,> 60,
9.31,21.4,15.5,COc1cc(/C=C/C(=O)N(CCN(C)C)c2ccccn2)cc(OC)c1OC,> 50,45.5,
